# Publication PMC9025851, “Polyphenolic Compounds from Lespedeza bicolor Protect Neuronal Cells from Oxidative Stress” (Antioxidants, 2022)
# Read-outs that look alike come from different tables or passages of the source.
# Tests used:
# [1] = test system: neuronal HT22 cells; parameters: method as in PMID 33397834; conditions: cited from earlier work; for Neuroprotective effect against glutamate-induced neurotoxicity: HT22 cells
# [2] = test system: MAO-B; parameters: method as in PMID 27575476, PMID 32087226; conditions: cited from earlier work
# [3] = test system: MAO-A; parameters: method as in PMID 27575476, PMID 32087226; conditions: cited from earlier work
# [4] = Ferric reducing antioxidant power (FRAP) assay; conditions: 4 min, absorbance 595 nm; mean ± SEM, n = 3
# Protocol: We performed the FRAP assay as described in [29]. We prepared the FRAP reagent by mixing 2.5 mL of TPTZ (2,4,6-tris(2-pyridyl)-s-triazine) solution (10 mM) in 40 mM HCl and 25 mL of FeCl3 solution (20 mM) in acetate buffer solution (300 mM, pH 3.6). Polyphenolics 7–11 were added to 3 mL of FRAP reagent at concentrations from 6 to 34 µM. The mixture was kept in the dark at room temperature for 4 min. Then, we measured the absorbance at 595 nm using a Shimadzu UV 1240 spectrophotometer. Equation (2) was used to calculate the FRAP values for polyphenolic compounds 7–11:(2) FRAP=CFe/Cx where CFe is the concentration of Fe^2+ (µM) formed in the reaction; CX is the concentration of polyphenolic compounds in the reacting mixture.
# The concentration of Fe^2+ (µM) formed in the reaction was determined using the calibration curve obtained for different concentrations of FeSO4·7H2O.
# [5] = DPPH radical-scavenging effect; conditions: 30 min; DPPH• 10^−4 M in MeOH; mean ± SEM, n = 3; read-out: DPPH-Scavenging Effect SC50
# Protocol: The 2,2-diphenyl-1-picrylhydrazyl (DPPH^•) radical-scavenging effect of polyphenolic compounds 7–11 was determined as described in [24]. Polyphenolic compounds 7, 8, 9, 10, and 11 were added to DPPH^• solution in MeOH (10^−4 M) at concentrations from 6 to 34 µM. The reacting mixture was kept in the dark for 30 min at room temperature. Then, we measured the absorbance at 517 nm using a Shimadzu UV 1240 spectrophotometer (Shimadzu, Kyoto, Japan). Equation (1) was used to calculate the DPPH^• radical-scavenging effect (%):(1) DPPH^• scavenging effect,%=A0−Ax/A0 where A0 is the absorbance of DPPH^• solution of a blank sample (without polyphenolic compounds); AX is the absorbance of DPPH^• solution in the presence of different concentrations of polyphenolic compounds.
# Quercetin was used as a reference compound. All experiments were performed in triplicate. We calculated the half-maximal scavenging concentration (SC50) for polyphenolic compounds by plotting the DPPH^• scavenging effect (%) against the concentrations of polyphenolic compounds. SC50 values are given as the mean value ± SEM.
# [6] = Cytotoxicity, MTT assay; format: cell-based, murine; conditions: mouse, Neuro-2a neuroblastoma cells, read-out: Cytotoxic activity EC50
# Protocol: The murine neuroblastoma cell line Neuro-2a (CCL-131) was purchased from American Type Culture Collection (ATCC®) (Manassas, VA, USA). Cells were cultured in Dulbecco’s Modified Eagle Medium (Biolot, St. Petersburg, Russia). The medium contained 10% fetal bovine serum (Biolot, St. Petersburg, Russia) and 1% penicillin/streptomycin (Biolot, St. Petersburg, Russia). Cells were incubated at 37 °C in a humidified atmosphere containing 5% (v/v) CO2.
# Stock solutions of polyphenolic compounds were prepared in DMSO at a concentration of 10 mM. […]
# We incubated Neuro-2a cells (1 × 10^4 cells/well) at 37 °C in a CO2 incubator for 24 h until they formed an adherent monolayer. Then, 20 μL of the tested solution was loaded onto the cells and incubated for 24 h. After incubation, the medium containing the polyphenolic test compounds was replaced by 100 μL of fresh medium. Then, we added 10 μL of MTT (3-(4,5-dimethylthiazol-2-yl)-2,5-diphenyltetrazolium bromide) (Sigma-Aldrich, St. Louis, MO, USA) stock solution (5 mg/mL) to each well and incubated the microplate for 4 h. Then, 100 μL of SDS-HCl solution (1 g SDS/10 mL dH2O/17 μL 6 M HCl) was added to each well, followed by incubation for 18 h. We measured the absorbance of the converted dye formazan on a Multiskan FC microplate photometer (Thermo Scientific, Waltham, MA, USA) at a wavelength of 570 nm. We performed all experiments in triplicate and expressed the cytotoxic activity as percent of living cells.
# [7] = test system: PQ-treated Neuro-2a cells; assay: PQ-induced neurotoxicity, cell viability (MTT); format: cell-based, murine; conditions: PQ 1 mM; for Effect on percentage of living cells after treatment with PQ: compounds 0.01–10 μM, 1 h pre-treatment, MTT after 24 h; for Increase in percentage of living cells after treatment with PQ: MTT
# Protocol: (§1) After 24 h of adhesion, Neuro-2a cells (1 × 10^4 cells/well) were treated with polyphenolic compounds at concentrations of 0.01–10 μM for 1 h. Subsequently, 1 mM of PQ, 10 μM rotenone or 80 μM of 6-OHDA (Sigma-Aldrich, St. Louis, MO, USA) were added. We used MTT assay to determine the percentage of living cells (cell viability) after 24 h of incubation. Cells incubated without inductors or with inductors were used as positive and negative control, respectively. The results are presented as percentages of the positive control value.
# [8] = test system: PQ-treated Neuro-2a cells; assay: Mitochondrial membrane potential (TMRM) in PQ-treated cells; format: cell-based, murine; conditions: for Increase in mitochondrial membrane potential: compound 10 µM, PQ-treated Neuro-2a, TMRM
# Protocol: The cells were incubated for 1 h in a 96-well plate (1 × 10^4 cells/well) with polyphenolic compounds (1 and 10 µM). Then, PQ (500 µM) was added, and the cell suspension was incubated for 1 h. Cells incubated without PQ and compounds were used as positive control, and cells with PQ alone were used as negative control. We added the tetramethylrhodamine methyl (TMRM) (Sigma-Aldrich, St. Louis, MO, USA) solution (500 nM) to each well, and incubated cells for 30 min at 37 °C. After the incubation, we measured the intensity of fluorescence with a PHERAstar FSplate reader (BMG Labtech, Ortenberg, Germany) at λex = 540 nm and λem = 590 nm. We processed the data using MARS Data Analysis v3.01R2 (BMG Labtech, Ortenberg, Germany) and presented results as percentages of the positive control value.
# [9] = parameters: method as in PMID 31004693; conditions: 30 min; mean ± SEM, n = 3; previously published; read-out: DPPH-Scavenging Effect SC50; cited from earlier work
# [10] = parameters: method as in PMID 31004693; conditions: mean ± SEM, n = 3; previously published; cited from earlier work
# [11] = test system: 6-OHDA-treated Neuro-2a cells; assay: 6-OHDA-induced neurotoxicity, cell viability (MTT); format: cell-based, murine; conditions: 6-OHDA 80 µM, p < 0.05
# Protocol: as §1
# [12] = test system: 6-OHDA-treated Neuro-2a cells; assay: ROS level in 6-OHDA-treated cells (H2DCF-DA); format: cell-based, murine; conditions: 6-OHDA 80 µM; for Effect on ROS levels in 6-OHDA-treated cells: 1 h, H2DCF-DA
# Protocol: After 24 h of adhesion, Neuro-2a cells (1 × 10^4 cells/well) were incubated with compounds (0.01–10 µM) for 1 h. Then, we added rotenone (10 μM), 6-OHDA (80 μM), or PQ (1 mM) to each well and incubated cells for 1 h, 1 h, or 3 h, respectively. To evaluate the level of intracellular ROS, we added 20 µL of 2,7-dichlorodihydrofluorescein diacetate solution ([…], H2DCF-DA, Molecular Probes, Eugene, OR, USA) to each well, so that the final concentration was 10 µM, and incubated the microplate at 37 °C for an additional 30 min. Quercetin was used as a reference compound.
compound,measurement,setting,value
COc1c(CC=C(C)C)c(O)cc2c1C1Oc3c(ccc(O)c3CC=C(C)C)C1CO2 (centres unmarked) [1-methoxyerythrabyssin II],Neuroprotective effect against glutamate-induced neurotoxicity,[1],significant neuroprotective effects
medicarpin,Inhibition of MAO-B,[2],selectively inhibited
same,Inhibition of MAO-A,[3],did not effectively inhibit
COc1cc(O)cc2c1C1Oc3c(ccc(O)c3CC=C(C)C)C1CO2 (centres unmarked) [1-methoxylespeflorin G11],Neuroprotective effect against glutamate-induced neurotoxicity,[1],significant neuroprotective effects
"O=c1c(O)c(-c2ccc(O)c(O)c2)oc2cc(O)cc(O)c12 [Quercetin, reference compound]",FRAP,[4],5.11 ± 0.31 mol (Fe^2+)/mol (polyphenolic compound X)
same,EC50,[5],8.9 ± 0.2 µM
"CC(C)=CCC/C(C)=C/Cc1c(O)c(C(=O)c2c(-c3ccc(O)cc3O)oc3c(C/C=C(\C)CCC=C(C)C)c(O)c(O)cc23)cc2c1OC1c3cc(CC=C(C)C)c(O)cc3OCC21 (centres unmarked) [Compound 8, lespebicolin B]",EC50 at 24 h,[6],> 100 µM
same,FRAP,[4],1.95 ± 0.19 mol (Fe^2+)/mol (polyphenolic compound X)
same,EC50,[5],26.7 ± 3.8 µM
same,Effect on percentage of living cells after treatment with PQ,[7],significantly increased
same,Increase in percentage of living cells after treatment with PQ,[7]; compound 1 and 10 μM,8–10%
"COc1ccc2c(c1O)OC[C@H]1c3cc4c(cc3O[C@@H]21)OCO4 [(–)-4-hydroxy-3-methoxy-8,9-methylenedioxypterocarpan]",Inhibition of MAO-B,[2],effectively inhibit
same,Inhibition of MAO-A,[3],effectively inhibit
"CC(C)=CCC/C(C)=C/Cc1c(O)c(O)cc(C(=O)C(=O)c2ccc(O)cc2O)c1O [Compound 5, bicoloketone]",EC50 at 24 h,[6],100 µM
same,Increase in mitochondrial membrane potential,[8],23%
same,EC50,[9],26.1 ± 3 µM
same,Effect on percentage of living cells after treatment with PQ,[7],significantly increased
same,Increase in percentage of living cells after treatment with PQ,[7]; compound 1 and 10 μM,8–10%
same,FRAP,[10],0.86 ± 0.04 mol (Fe^2+)/mol (polyphenolic compound X)
COc1c(CC=C(C)C)c(O)cc2c1[C@@H]1Oc3c(cc(C)c(O)c3CC=C(C)C)[C@@H]1CO2 [bicolosin A],Neuroprotective effect against glutamate-induced neurotoxicity,[1],significant neuroprotective effects
"CC(C)=CCC/C(C)=C/Cc1c(O)c(O)cc2c1O[C@H]1c3ccc(O)cc3OC[C@@H]21 [Compound 1, (6aR,11aR)-6a,11a-dihydrolespedezol A2]",EC50 at 24 h,[6],72 µM
same,EC50,[9],24.3 ± 3.7 µM
same,Effect on percentage of living cells after treatment with PQ,[7],did not exhibit any effect
same,FRAP,[10],1.78 ± 0.16 mol (Fe^2+)/mol (polyphenolic compound X)
"CC(C)=CCC/C(C)=C/Cc1c(O)c(O)cc(C(=O)C(=O)c2cc(CC=C(C)C)c(O)cc2O)c1O [Compound 11, 5′-isoprenylbicoloketone]",EC50 at 24 h,[6],87 µM
same,FRAP,[4],1.45 ± 0.08 mol (Fe^2+)/mol (polyphenolic compound X)
same,EC50,[5],19.4 ± 2.2 µM
"CC(C)=CCC/C(C)=C/Cc1c(O)c(O)cc2c1oc1c3ccc(O)cc3oc(=O)c21 [Compound 7, lespedezol A6]",EC50 at 24 h,[6],> 100 µM
same,FRAP,[4],1.83 ± 0.16 mol (Fe^2+)/mol (polyphenolic compound X)
same,EC50,[5],25.7 ± 3.4 µM
"CC(C)=CCC[C@@]1(C)C=Cc2c(c(O)cc3c2O[C@H]2c4ccc(O)cc4OC[C@@H]32)O1 [Compound 2, (6aR,11aR,3′S)-6a,11a-dihydrolespedezol A3]",EC50 at 24 h,[6],75 µM
same,Increase in percentage of living cells after 6-OHDA treatment versus 6-OHDA-treated cells,[11],8.7%
same,EC50,[9],25 ± 2.2 µM
same,Decrease of ROS level compared to 6-OHDA-treated cells,[12],4.5 times
same,Effect on ROS levels in 6-OHDA-treated cells,[12],significantly decreased
same,Effect on percentage of living cells after treatment with PQ,[7],did not exhibit any effect
same,FRAP,[10],1.31 ± 0.02 mol (Fe^2+)/mol (polyphenolic compound X)
"C[n+]1ccc(-c2cc[n+](C)cc2)cc1 [PQ, paraquat, reference compound]",Decrease in TMRM fluorescence,[8]; 1 h exposure of Neuro-2a cells with PQ alone,23%
"CC(C)=CCC[C@]1(C)C=Cc2c(c(O)cc3c2O[C@H]2c4ccc(O)cc4OC[C@@H]32)O1 [Compound 3, 6aR,11aR,3′R-6a,11a-dihydrolespedezol A3]",EC50 at 24 h,[6],44 µM
same,Increase in percentage of living cells after 6-OHDA treatment versus 6-OHDA-treated cells,[11],12.9%
same,Increase in mitochondrial membrane potential,[8],16%
same,EC50,[9],23.7 ± 2.1 µM
same,Decrease of ROS level compared to 6-OHDA-treated cells,[12],4.5 times
same,Effect on ROS levels in 6-OHDA-treated cells,[12],significantly decreased
same,Effect on percentage of living cells after treatment with PQ,[7],significantly increased
same,Increase in percentage of living cells after treatment with PQ,[7]; compound 10 μM,8%
same,FRAP,[10],1.60 ± 0.08 mol (Fe^2+)/mol (polyphenolic compound X)
COc1cc2c(cc1O)OC1c3c(OC)cc(O)c(C/C=C(\C)CCC=C(C)C)c3OCC21 (centres unmarked) [8-methoxybicolosin C],Neuroprotective effect against glutamate-induced neurotoxicity,[1],significant neuroprotective effects
2-geranyl-1-methoxylespeflorin G11,Neuroprotective effect against glutamate-induced neurotoxicity,[1],significant neuroprotective effects
same,Apoptosis in HT22 cells,[1]; by inhibiting intracellular ROS generation and mitochondrial dysfunction,attenuate
2-geranylbicolosin A,Neuroprotective effect against glutamate-induced neurotoxicity,[1],significant neuroprotective effects
"O=C1O[C@H]([C@@H](O)CO)C(O)=C1O [Ascorbic acid, reference compound]",FRAP,[4],3.43 ± 0.33 mol (Fe^2+)/mol (polyphenolic compound X)
same,EC50,[5],30.5 ± 2.1 µM
